“And” between values parts separate entries of the source, which are not always exact repeats. Equal values may be shown once.
Tests used:
[1] = target: T1, Nitric oxide synthase, inducible (Homo sapiens, UniProt P35228); assay: Inhibitory concentration against nitric oxide synthesis in intact DLD-1 cells; format: functional, cell-based
[2] = target: T1, Nitric oxide synthase, inducible; assay: Ability to inhibit conversion of [3H]L-Arg to [3H]L-citrulline catalyzed by inducible NOS (i NOS) from human DLD-1 cells; format: functional, cell-based
Nitric oxide synthase 1 = Nitric oxide synthase 1 (Rattus norvegicus, UniProt P29476); assay: Inhibition of conversion of [3H]L-Arg to [3H]L-citrulline catalyzed by neuronal NOS (n NOS) from rat cerebellum; format: functional, tissue-based
Nitric oxide synthase 1, sequence (P29476 whole entry): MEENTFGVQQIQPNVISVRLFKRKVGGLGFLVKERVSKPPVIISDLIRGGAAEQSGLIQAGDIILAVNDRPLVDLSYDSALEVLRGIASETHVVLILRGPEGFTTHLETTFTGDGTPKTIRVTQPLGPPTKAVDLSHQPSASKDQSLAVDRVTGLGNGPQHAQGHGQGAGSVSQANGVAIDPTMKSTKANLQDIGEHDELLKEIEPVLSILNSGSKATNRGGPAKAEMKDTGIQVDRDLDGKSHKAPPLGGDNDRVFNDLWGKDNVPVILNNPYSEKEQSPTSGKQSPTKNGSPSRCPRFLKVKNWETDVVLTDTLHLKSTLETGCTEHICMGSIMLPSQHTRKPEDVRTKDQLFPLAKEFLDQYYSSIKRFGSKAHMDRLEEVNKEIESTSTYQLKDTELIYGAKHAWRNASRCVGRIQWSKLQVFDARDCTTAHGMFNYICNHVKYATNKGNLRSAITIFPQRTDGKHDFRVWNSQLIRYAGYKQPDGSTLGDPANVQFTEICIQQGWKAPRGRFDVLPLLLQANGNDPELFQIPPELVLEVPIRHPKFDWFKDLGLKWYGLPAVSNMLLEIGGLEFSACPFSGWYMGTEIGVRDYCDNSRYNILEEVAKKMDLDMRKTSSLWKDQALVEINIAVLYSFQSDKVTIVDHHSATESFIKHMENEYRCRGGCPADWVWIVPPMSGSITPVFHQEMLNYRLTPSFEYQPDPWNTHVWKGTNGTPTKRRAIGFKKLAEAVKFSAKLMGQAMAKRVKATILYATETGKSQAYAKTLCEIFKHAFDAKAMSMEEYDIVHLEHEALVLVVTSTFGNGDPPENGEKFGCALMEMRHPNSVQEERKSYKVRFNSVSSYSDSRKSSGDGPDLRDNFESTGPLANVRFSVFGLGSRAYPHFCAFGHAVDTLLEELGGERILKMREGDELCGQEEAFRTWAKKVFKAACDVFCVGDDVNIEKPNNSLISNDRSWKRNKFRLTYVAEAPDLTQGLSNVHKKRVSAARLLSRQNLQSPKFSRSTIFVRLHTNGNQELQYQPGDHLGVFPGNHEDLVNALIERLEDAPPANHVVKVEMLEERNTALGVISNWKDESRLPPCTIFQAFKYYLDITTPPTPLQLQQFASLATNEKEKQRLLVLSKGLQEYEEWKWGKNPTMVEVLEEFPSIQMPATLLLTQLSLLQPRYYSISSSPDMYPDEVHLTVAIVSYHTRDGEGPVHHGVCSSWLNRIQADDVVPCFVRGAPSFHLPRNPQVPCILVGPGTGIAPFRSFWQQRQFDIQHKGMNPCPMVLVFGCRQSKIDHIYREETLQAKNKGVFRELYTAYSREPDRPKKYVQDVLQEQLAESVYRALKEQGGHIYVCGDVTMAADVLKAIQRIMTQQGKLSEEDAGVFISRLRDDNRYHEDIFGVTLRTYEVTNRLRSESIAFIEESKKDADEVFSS

Nitric oxide synthase 3 = target: T2, Nitric oxide synthase 3 (Homo sapiens, UniProt P29474); assay: Ability to inhibit conversion of [3H]L-Arg to [3H]L-citrulline catalyzed by endothelial NOS (e NOS) from HUVEC cells; format: functional, cell-based
T2 sequence (P29474 whole entry): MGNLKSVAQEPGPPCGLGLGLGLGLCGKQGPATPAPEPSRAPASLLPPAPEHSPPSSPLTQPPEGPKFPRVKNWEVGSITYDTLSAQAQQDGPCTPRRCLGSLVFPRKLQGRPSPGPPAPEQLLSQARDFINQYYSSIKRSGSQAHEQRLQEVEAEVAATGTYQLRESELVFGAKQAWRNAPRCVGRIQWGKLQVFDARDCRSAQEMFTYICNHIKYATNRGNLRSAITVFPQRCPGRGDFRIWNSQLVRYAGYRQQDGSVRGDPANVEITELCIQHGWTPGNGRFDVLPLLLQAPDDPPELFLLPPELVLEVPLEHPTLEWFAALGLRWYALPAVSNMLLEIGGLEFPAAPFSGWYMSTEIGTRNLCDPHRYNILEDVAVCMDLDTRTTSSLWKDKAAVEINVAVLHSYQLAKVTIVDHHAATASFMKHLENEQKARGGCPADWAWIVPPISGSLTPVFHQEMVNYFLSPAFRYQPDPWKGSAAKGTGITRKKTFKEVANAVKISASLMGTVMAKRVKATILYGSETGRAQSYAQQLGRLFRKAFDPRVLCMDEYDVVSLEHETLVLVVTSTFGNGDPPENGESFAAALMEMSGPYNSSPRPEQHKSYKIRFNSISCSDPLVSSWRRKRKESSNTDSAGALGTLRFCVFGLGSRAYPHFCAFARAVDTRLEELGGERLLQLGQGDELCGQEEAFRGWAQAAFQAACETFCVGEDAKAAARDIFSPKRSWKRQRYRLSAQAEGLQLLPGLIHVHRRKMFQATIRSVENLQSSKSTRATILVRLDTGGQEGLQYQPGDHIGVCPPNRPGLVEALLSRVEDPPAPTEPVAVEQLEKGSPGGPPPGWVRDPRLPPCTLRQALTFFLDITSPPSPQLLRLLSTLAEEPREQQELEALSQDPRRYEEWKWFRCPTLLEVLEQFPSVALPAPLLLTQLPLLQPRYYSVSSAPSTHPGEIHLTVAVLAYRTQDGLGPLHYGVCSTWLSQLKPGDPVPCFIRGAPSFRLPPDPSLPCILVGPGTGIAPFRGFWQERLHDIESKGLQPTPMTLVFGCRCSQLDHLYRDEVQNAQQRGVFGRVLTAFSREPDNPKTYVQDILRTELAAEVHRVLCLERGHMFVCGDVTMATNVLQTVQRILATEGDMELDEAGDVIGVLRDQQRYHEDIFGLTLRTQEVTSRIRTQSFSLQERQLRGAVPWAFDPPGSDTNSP

[3] = target: T3, Nitric oxide synthase 3 (Homo sapiens) (UniProt P29474); assay: Ability (at 100 catalyzed by endothelial NOS (e NOS) from HUVEC cells; format: functional, cell-based; details: concentration not given here
T3 sequence (whole entry): T2 sequence (P29474 whole entry)

DLD-1 [4] = assay: (§1) Ability (at 100 catalyzed by inducible NOS (i NOS) from human DLD-1 cells; format: functional, cell-based
DLD-1 [5] = assay: as §1; format: functional
Rattus norvegicus = species on record: Rattus norvegicus; assay: Ability (at 100 catalyzed by neuronal NOS (n NOS) from rat cerebellum; format: functional

T1 sequence (P35228 whole entry): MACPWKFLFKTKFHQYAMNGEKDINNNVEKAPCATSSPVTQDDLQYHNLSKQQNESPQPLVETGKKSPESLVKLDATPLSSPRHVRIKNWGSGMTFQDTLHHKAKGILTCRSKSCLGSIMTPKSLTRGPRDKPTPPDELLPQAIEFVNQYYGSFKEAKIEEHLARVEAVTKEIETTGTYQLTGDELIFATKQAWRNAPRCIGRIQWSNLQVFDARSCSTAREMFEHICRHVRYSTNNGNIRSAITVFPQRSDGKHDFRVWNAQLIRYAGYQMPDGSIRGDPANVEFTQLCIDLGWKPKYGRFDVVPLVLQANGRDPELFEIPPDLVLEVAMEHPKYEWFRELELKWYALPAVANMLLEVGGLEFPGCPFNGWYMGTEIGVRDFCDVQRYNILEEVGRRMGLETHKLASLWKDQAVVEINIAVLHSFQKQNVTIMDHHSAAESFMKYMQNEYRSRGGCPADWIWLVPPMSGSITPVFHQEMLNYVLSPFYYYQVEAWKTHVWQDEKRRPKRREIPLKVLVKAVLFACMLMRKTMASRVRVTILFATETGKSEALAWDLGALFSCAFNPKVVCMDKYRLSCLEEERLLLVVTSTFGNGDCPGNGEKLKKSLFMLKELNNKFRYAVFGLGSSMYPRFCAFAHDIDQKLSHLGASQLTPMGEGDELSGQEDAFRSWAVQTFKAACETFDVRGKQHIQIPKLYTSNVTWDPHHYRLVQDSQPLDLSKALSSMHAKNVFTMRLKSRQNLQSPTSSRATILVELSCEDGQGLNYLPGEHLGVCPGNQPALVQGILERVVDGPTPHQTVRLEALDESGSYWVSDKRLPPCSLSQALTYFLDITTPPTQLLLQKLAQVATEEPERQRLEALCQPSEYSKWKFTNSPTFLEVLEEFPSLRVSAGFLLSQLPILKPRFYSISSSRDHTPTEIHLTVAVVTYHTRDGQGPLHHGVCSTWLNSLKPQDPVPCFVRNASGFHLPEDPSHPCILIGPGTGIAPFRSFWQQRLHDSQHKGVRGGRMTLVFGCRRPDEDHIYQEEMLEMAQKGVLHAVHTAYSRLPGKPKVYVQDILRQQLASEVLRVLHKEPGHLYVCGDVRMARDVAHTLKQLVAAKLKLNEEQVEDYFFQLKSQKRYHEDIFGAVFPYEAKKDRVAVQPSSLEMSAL

Compound	IC50 [1]	IC50 [2]	IC50 (Nitric oxide synthase 1)	IC50 (Nitric oxide synthase 3)	inhibition [3]	Inhibition (DLD-1 [4])	Inhibition (DLD-1 [5])	Inhibition (Rattus norvegicus)
COC(=O)[C@@H](N)CCCNC(=N)N[N+](=O)[O-] [L-NAME]	300 µM	14 µM	0.15 µM	2.7 µM	–	–	–	–
C#CC1Cc2ccccc2C(N)=N1 (centres undefined)	–	2.7 µM	0.4 µM	0.9 µM	–	–	–	–
NC1=NC(c2cccs2)Cc2ccccc21 (centres undefined)	–	2.7 µM	2 µM	8 µM	–	–	–	–
NC1=NC(c2ccc(Cl)cc2)Cc2ccccc21 (centres undefined)	–	–	30 µM	86 µM	–	–	46%	–
N=C(N)NN [PIMAGEDINE]	–	4.5 µM	6 µM	72 µM	–	–	–	–
NC1=NC(c2ccco2)Cc2ccccc21 (centres undefined)	–	1.2 µM	0.9 µM	5 µM	–	–	–	–
NC1=NC(c2ccc(F)cc2)Cc2ccccc21 (centres undefined)	–	5.5 µM	9 µM	40 µM	–	–	–	–
NC1=NC(c2ccccc2)Cc2cccc(F)c21 (centres undefined)	130 µM	0.55 µM	2 µM	80 µM	–	–	–	–
NC1=NC(c2ccccc2)Cc2cccc(Cl)c21 (centres undefined)	–	–	–	6 µM	< 25%	–	–	25%
CC1Cc2ccccc2C(N)=N1 (centres undefined)	–	18 µM	3 µM	4 µM	–	–	–	–
NC1=NC(C2CC2)Cc2ccccc21 (centres undefined)	300 µM	1.3 µM	1.5 µM	3.6 µM	–	–	–	–

Now from value to molecule, other results behind:

IC50 [1]	IC50 [2]	IC50 (Nitric oxide synthase 1)	IC50 (Nitric oxide synthase 3)	inhibition [3]	Compound	Inhibition (DLD-1 [4])	Inhibition (DLD-1 [5])	Inhibition (Rattus norvegicus)
–	–	10 µM	–	< 25%	CC1(C)Cc2ccccc2C(N)=N1	–	–	–
–	–	2 µM	12 µM	–	NC1=NCCCc2ccccc21	< 25%	–	–
–	–	10 µM	9 µM	< 25%	NC1=NC(c2cccc(F)c2)Cc2ccccc21 (centres undefined)	–	–	–
–	–	12 µM	9 µM	< 25%	NC1=NC(c2ccccc2)Cc2ccccc21 (centres undefined)	–	–	–
880 µM	4.2 µM	8 µM	19 µM	–	NC1=NC(c2nccs2)Cc2ccccc21 (centres undefined)	–	–	–
–	33 µM	13 µM	44 µM	–	NC1=NC(c2ccccc2F)Cc2ccccc21 (centres undefined)	–	–	–
350 µM	–	100 µM	5 µM	39%	NC1=NC(c2ccc(F)cc2)Cc2cccc(Cl)c21 (centres undefined)	–	–	–
–	9 µM	20 µM	100 µM	–	NC1=NC(c2ccc(F)cc2)Cc2cc(F)ccc21 (centres undefined)	–	–	–
–	–	–	–	47% and < 25%	NC1=NC(c2ncc[nH]2)Cc2ccccc21 (centres undefined)	–	–	<25%
–	–	44 µM	55 µM	–	NC1=NC(c2ccc(F)cc2)Cc2ccc(F)cc21 (centres undefined)	–	43%	–
–	32 µM	0.4 µM	2 µM	–	NC1=NCCc2ccccc21	–	–	–
350 µM	–	16 µM	–	< 25%	NC1=NC(c2ccc(F)cc2)Cc2cccc(F)c21 (centres undefined)	–	–	–
–	4.7 µM	5 µM	44 µM	–	NC1=NC(c2ccc(F)cc2)Cc2c(F)cccc21 (centres undefined)	–	–	–
470 µM	0.13 µM	1.6 µM	2.4 µM	–	CC(=N)NCCCC[C@H](N)C(=O)O [L-NIL]	–	–	–

— ChEMBL document CHEMBL1134020, “3,4-Dihydro-1-isoquinolinamines: a novel class of nitric oxide synthase inhibitors with a range of isoform selectivity and potency” (Bioorg Med Chem Lett, 2001)
